# Laboratory results reported in EP1126030A1, “THIOREDOXIN REDUCTASE II” (priority 1998, dated 2000).
# Target: T1, flag-tag fused TxRIIα protein (Homo sapiens, UniProt Q9NNW7)
# T1 construct: made in house
# Experiment: Inhibitor assay (DTNB assay of TxR activity)
# Assay type: biochemical
# Details: diluted series of inhibitor; 1 µM flag-tag fused TxRIIα protein, 1 mM NADPH, 10 mM DTNB, pH 7.2; absorbance at 412 nm at 25°C for 5 min (Figure 5)
# Method: DTNB assay is a method in which TNB caused by the TxR activity from DTNB is measured by the absorbance of a thiol at 412 nm based on the following reaction formula. The purified tag fused TxRIIα protein (1 to 50 µl) was added to the assay buffer 1 to mess up to 1.0 ml. The absorbance at 412 nm was measured at 25°C for 5 min (Figure 3). DTNB + NADPH + H^+ 2TNB + NADP^+
# 100 mM potassium phosphate pH 7.0, 10 mM EDTA, 0.25 mM NADPH, 0.2 mg/ml bovine serum albumin (BSA), 1% ethanol, 1 mM DTNB
# To compare an enzyme activity of the TxRIIs by the present invention, obtained as a recombinant, and an activity of the natural TxR, an effect of an inhibitor was observed. As an inhibitor for the TxR activity, 1-chloro-2, 4-dinitrobenzene (CDNB) and 13-cis-retinoic acid was used. For confirming the TxR activity, the DTNB assay was used.
# The diluted series of the inhibitors was prepared with 0.2 ml of HE buffer (100 mM HEPES buffer pH 7.2, 5 mM EDTA) . The tag-fused TxRIIαprotein was prepared at 3 µM and 0.2 ml thereof was added thereto, then 0.2 ml of HE buffer containing 3 mM NADPH and 30 mM DTNB was added thereto. The reaction system of this solution is composed of 100 mM HEPES buffer pH 7.2, 5 mM EDTA, 1 µM flag-tag fused TxRIIα protein, 1 mM NADPH, and 10 mM DTNB. The […] was measured by absorbance of a thiol at 412 nm at 25°C for 5min.
# T1 sequence (Q9NNW7 37-524): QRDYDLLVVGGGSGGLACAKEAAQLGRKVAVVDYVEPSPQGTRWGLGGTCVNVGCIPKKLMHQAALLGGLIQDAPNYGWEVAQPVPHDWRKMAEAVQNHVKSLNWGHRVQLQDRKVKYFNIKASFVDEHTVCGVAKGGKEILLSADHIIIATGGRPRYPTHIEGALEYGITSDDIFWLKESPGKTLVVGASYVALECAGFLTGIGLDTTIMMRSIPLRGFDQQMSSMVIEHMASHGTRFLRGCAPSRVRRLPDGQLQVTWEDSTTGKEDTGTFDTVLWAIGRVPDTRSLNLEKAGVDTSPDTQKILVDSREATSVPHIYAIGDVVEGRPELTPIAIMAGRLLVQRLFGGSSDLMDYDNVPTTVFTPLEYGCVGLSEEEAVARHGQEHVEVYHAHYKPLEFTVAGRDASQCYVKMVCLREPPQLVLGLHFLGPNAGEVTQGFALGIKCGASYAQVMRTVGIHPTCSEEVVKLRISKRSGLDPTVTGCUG
row,SMILES,inhibition of the TxR activity of the purified flag-tag fused TxRIIα protein
1,"CC1=C(/C=C/C(C)=C/C=C/C(C)=C\C(=O)O)C(C)(C)CCC1 [13-cis retinoic acid, 13-cis-retinoic acid]",effectively inhibited
2,"O=[N+]([O-])c1ccc(Cl)c([N+](=O)[O-])c1 [CDNB, 1-chloro-2,4-dinitrobenzene]",effectively inhibited
